# According to patent publication US7173004B2, “Macrocyclic isoquinoline peptide inhibitors of hepatitis C virus” (Bristol-Myers Squibb Company, priority 2003, dated 2007):
# pIC50: −log10 of the molar value.
# Molecular target: T1, HCV NS3/4A protease complex, BMS strain (genotype 1a) (UniProt P27958, C1454S/C1711G, species not given/STRAIN_BMS)
# T1 construct: b1001: DNA encoding the recombinant HCV NS3/4A protease complex (amino acids 1027 to 1711) ... a three-lysine solubilizing tail was added at the 3′-end of the NS4A coding region; fused on or other part: Three-lysine solubilising tail at the C-terminus of NS4A; A His tag is implied by the pET21b vector and Ni-NTA purification
# Experiment: Recombinant HCV NS3/4A protease complex FRET peptide assay, BMS strain
# Format: biochemical
# Conditions: NS3/4A BMS strain; activity range symbols
# Summary of the method: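 Recombinant NS3/4A (aa 1027–1711) from H77C, J4L6S or BMS strains, with C1454S and C1711G mutations and three-lysine tail, expressed in E. coli and Ni-NTA/gel-filtration purified to >90%. Inhibition of cleavage of a FRET peptide substrate measured.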
row,SMILES,pIC50
1,CC(C)(C)NC(=O)N1CCC/C=C\[C@@H]2C[C@@]2(C(=O)NS(=O)(=O)C2CC2)NC(=O)[C@@H]2C[C@@H](Oc3nccc4ccccc34)CN2C(=O)[C@@H](NC(=O)OC(C)(C)C)C1 [Compound 150],> 7.30
2,COc1ccc2c(OC3CC4C(=O)NC5(C(=O)NS(=O)(=O)C6CC6)CC5C=CCCCOCC(NC(=O)N5CCCC5)C(=O)N4C3)nc(-c3ccc(N(C)C)cc3)cc2c1 (centres unmarked) [Compound 111],> 7.30
3,CC(C)(C)OC(=O)N[C@H]1CN(S(C)(=O)=O)CCC/C=C\[C@@H]2C[C@@]2(C(=O)NS(=O)(=O)C2CC2)NC(=O)[C@@H]2C[C@@H](Oc3nccc4ccccc34)CN2C1=O [Compound 153],> 7.30
4,COc1cccc2c(OC3CC4C(=O)NC5(C(=O)NS(=O)(=O)C6CC6)CC5C=CCCCCCC(NC(=O)OC(C)(C)C)C(=O)N4C3)nccc12 (centres unmarked) [Compound 133],> 7.30
5,COc1ccc2c(OC3CC4C(=O)NC5(C(=O)NS(=O)(=O)C6(C)CC6)CC5C=CCCCSCC(NC(=O)OC(C)(C)C)C(=O)N4C3)nccc2c1 (centres unmarked) [Compound 115],> 7.30
6,COc1ccc2c(OC3CC4C(=O)NC5(C(=O)NS(=O)(=O)C6CC6)CC5C=CCCCCCC(NC(=O)NC5CCCC5)C(=O)N4C3)nccc2c1 (centres unmarked) [Compound 136],> 7.30
7,COc1ccc2c(OC3CC4C(=O)NC5(C(=O)NS(=O)(=O)C6CC6)CC5C=CCCCSCC(N)C(=O)N4C3)nccc2c1 (centres unmarked) [Compound 117],6.30 to 7.30
8,O=CNC1CCCCCC=CC2CC2(C(=O)NS(=O)(=O)C2CC2)NC(=O)C2CC(Oc3nccc4ccccc34)CN2C1=O (centres unmarked) [Compound 119],> 7.30
9,COC(=O)N1CCC/C=C\[C@@H]2C[C@@]2(C(=O)NS(=O)(=O)C2CC2)NC(=O)[C@@H]2C[C@@H](Oc3nccc4ccccc34)CN2C(=O)[C@@H](NC(=O)OC(C)(C)C)C1 [Compound 148],> 7.30
10,COc1ccc2c(OC3CC4C(=O)NC5(C(=O)NS(=O)(=O)C6CC6)CC5C=CCCCCCC(NC(=O)NC(C)(C)C)C(=O)N4C3)nccc2c1 (centres unmarked) [Compound 135],> 7.30
11,COc1ccc2c(OC3CC4C(=O)NC5(C(=O)NS(=O)(=O)C6CC6)CC5C=CCCCOCC(NC(=O)OC5CCCC5)C(=O)N4C3)nc(-c3ccccc3)cc2c1 (centres unmarked) [Compound 94],> 7.30
12,CCC1(S(=O)(=O)NC(=O)C23CC2C=CCCCSCC(NC(=O)OC(C)(C)C)C(=O)N2CC(Oc4nccc5cc(OC)ccc45)CC2C(=O)N3)CC1 (centres unmarked) [Compound 121],> 7.30
13,COc1ccc2c(OC3CC4C(=O)NC5(C(=O)NS(=O)(=O)C6CC6)CC5C=CCOCCCC(NC(=O)NC(C)(C)C)C(=O)N4C3)nc(-c3ccccc3)cc2c1 (centres unmarked) [Compound 102],> 7.30
14,CC(C)(C)OC(=O)NC1CCCCCC=CC2CC2(C(=O)NS(=O)(=O)C2CC2)NC(=O)C2CC(Oc3nccc4c(Cl)cccc34)CN2C1=O (centres unmarked) [Compound 130],> 7.30
15,COc1ccc2c(OC3CC4C(=O)NC5(C(=O)NS(=O)(=O)C6CC6)CC5C=CCOCCCC(NC(=O)N5CCNC5=O)C(=O)N4C3)nc(-c3ccccc3)cc2c1 (centres unmarked) [Compound 106],> 7.30
16,COc1ccc2c(OC3CC4C(=O)NC5(C(=O)NS(=O)(=O)C6CC6)CC5C=CCCCSC(C)(C)C(NC(=O)NC5CCCC5)C(=O)N4C3)nccc2c1 (centres unmarked) [Compound 82],> 7.30
17,COc1ccc2c(OC3CC4C(=O)NC5(C(=O)NS(=O)(=O)C6CC6)CC5C=CCCCOCC(NC(=O)OC(C)C)C(=O)N4C3)nc(-c3ccccc3)cc2c1 (centres unmarked) [Compound 96],> 7.30
18,COc1ccc2c(OC3CC4C(=O)NC5(C(=O)NS(=O)(=O)C6CC6)CC5C=CCCCOCC(NC(=O)NC(C)(C)C)C(=O)N4C3)nc(-c3ccc(N(C)C)cc3)cc2c1 (centres unmarked) [Compound 108],> 7.30
19,COc1ccc2c(OC3CC4C(=O)NC5(C(=O)NS(=O)(=O)C6CC6)CC5C=CCCCSC(C)(C)C(NC(=O)NC(C)(C)C)C(=O)N4C3)nccc2c1 (centres unmarked) [Compound 81],> 7.30
20,COc1ccc2c(OC3CC4C(=O)NC5(C(=O)NS(=O)(=O)C6CC6)CC5C=CCCCCCC(NC(=O)OC(C)(C)C)C(=O)N4C3)nccc2c1OC (centres unmarked) [Compound 134],> 7.30
21,CC(C)(C)CC(C)(C)NC(=O)NC1CCCCCC=CC2CC2(C(=O)NS(=O)(=O)C2CC2)NC(=O)C2CC(Oc3nccc4ccccc34)CN2C1=O (centres unmarked) [Compound 129],> 7.30
22,CC(C)(C)OC(=O)N[C@H]1CNCCC/C=C\[C@@H]2C[C@@]2(C(=O)NS(=O)(=O)C2CC2)NC(=O)[C@@H]2C[C@@H](Oc3nccc4ccccc34)CN2C1=O [Compound 151],> 7.30
23,COc1ccc2c(OC3CC4C(=O)NC5(C(=O)NS(=O)(=O)C6CC6)CC5C=CCCCSC(C)(C)C(N)C(=O)N4C3)nccc2c1 (centres unmarked) [Compound 83],5.30 to 6.30
24,COc1ccc2c(OC3CC4C(=O)NC5(C(=O)NS(=O)(=O)C6CC6)CC5C=CCCCOCC(NC(=O)OCC(C)(C)C)C(=O)N4C3)nc(-c3ccccc3)cc2c1 (centres unmarked) [Compound 95],> 7.30

row,SMILES,pIC50
1,COc1ccc2c(OC3CC4C(=O)NC5(C(=O)NS(=O)(=O)C6CC6)CC5C=CCCCOCC(NC(=O)OC(C)C)C(=O)N4C3)nc(-c3ccc(N(C)C)cc3)cc2c1 (centres unmarked) [Compound 109],> 7.30
2,COc1ccc2c(OC3CC4C(=O)NC5(C(=O)NS(=O)(=O)C6CC6)CC5C=CCOCCCC(NC(=O)OC(C)C)C(=O)N4C3)nc(-c3ccccc3)cc2c1 (centres unmarked) [Compound 98],> 7.30
3,CC(C)(C)COC(=O)N1CCCC=CC2CC2(C(=O)NS(=O)(=O)C2CC2)NC(=O)C2CC(Oc3nccc4ccccc34)CN2C(=O)C(NC(=O)OC(C)(C)C)C1 (centres unmarked) [Compound 149],> 7.30
4,"COc1ccc2c(O[C@@H]3C[C@H]4C(=O)N[C@]5(C(=O)NS(=O)(=O)C6CC6)C[C@H]5/C=C\CCCOC[C@H](NC(=O)OC(C)(C)C)C(=O)N4C3)nccc2c1 [Compound 85, (1S,4R,6S,14S,18R)-[7-cis-4-Cyclopropanesulfonylaminocarbonyl-18-(6-methoxy-isoquinolin-1-yloxy)-2,15-dioxo-12-oxa-3,16-diaza-tricyclo[14.3.0.0^4,6]nonadec-7-en-14-yl]-carbamic acid, tert-butyl ester]",> 7.30
5,CC(=O)C(C)(C)OC(=O)NC1CCCCCC=CC2CC2(C(=O)NS(=O)(=O)C2CC2)NC(=O)C2CC(Oc3nccc4ccccc34)CN2C1=O (centres unmarked) [Compound 123],> 7.30
6,CC(C)(OC(=O)NC1CCCCCC=CC2CC2(C(=O)NS(=O)(=O)C2CC2)NC(=O)C2CC(Oc3nccc4ccccc34)CN2C1=O)C(Cl)(Cl)Cl (centres unmarked) [Compound 124],> 7.30
7,COc1ccc2c(OC3CC4C(=O)NC5(C(=O)NS(=O)(=O)C6CC6)CC5C=CCCCOCC(NC(=O)N5CCCC5)C(=O)N4C3)nc(-c3ccccc3)cc2c1 (centres unmarked) [Compound 93],> 7.30
8,COc1ccc2c(OC3CC4C(=O)NC5(C(=O)NS(=O)(=O)C6CC6)CC5C=CCOCCCC(NC(=O)OC(C)(C)C)C(=O)N4C3)nc(-c3ccc(N(C)C=O)cc3)cc2c1 (centres unmarked) [Compound 114],> 7.30
9,COc1ccc2c(OC3CC4C(=O)NC5(C(=O)NS(=O)(=O)C6CC6)CC5C=CCCCOCC(NC(=O)NC(C)(C)C)C(=O)N4C3)nc(-c3ccccc3)cc2c1 (centres unmarked) [Compound 92],> 7.30
10,CC(=O)N1CCC/C=C\[C@@H]2C[C@@]2(C(=O)NS(=O)(=O)C2CC2)NC(=O)[C@@H]2C[C@@H](Oc3nccc4ccccc34)CN2C(=O)[C@@H](NC(=O)OC(C)(C)C)C1 [Compound 146],> 7.30
11,COc1ccc2c(OC3CC4C(=O)NC5(C(=O)NS(=O)(=O)C6CC6)CC5C=CCCCOCC(NC(=O)OCC(C)(C)C)C(=O)N4C3)nccc2c1 (centres unmarked) [Compound 88],> 7.30
12,COc1ccc2c(OC3CC4C(=O)NC5(C(=O)NS(=O)(=O)C6CC6)CC5C=CCCCOCC(NC(=O)OC5CCCC5)C(=O)N4C3)nccc2c1 (centres unmarked) [Compound 90],> 7.30
13,CCC(C)(C)OC(=O)NC1CCCCCC=CC2CC2(C(=O)NS(=O)(=O)C2CC2)NC(=O)C2CC(Oc3nccc4ccccc34)CN2C1=O (centres unmarked) [Compound 125],> 7.30
14,CC1(COC(=O)NC2CCCCCC=CC3CC3(C(=O)NS(=O)(=O)C3CC3)NC(=O)C3CC(Oc4nccc5ccccc45)CN3C2=O)CC1 (centres unmarked) [Compound 122],> 7.30
15,CC(C)(C)OC(=O)N[C@H]1CN(S(=O)(=O)c2ccccc2[N+](=O)[O-])CCC/C=C\[C@@H]2C[C@@]2(C(=O)NS(=O)(=O)C2CC2)NC(=O)[C@@H]2C[C@@H](Oc3nccc4ccccc34)CN2C1=O [Compound 145],> 7.30
16,COc1ccc2c(OC3CC4C(=O)NC5(C(=O)NS(=O)(=O)C6CC6)CC5C=CCOCCCC(NC(=O)N5CCCC5)C(=O)N4C3)nc(-c3ccccc3)cc2c1 (centres unmarked) [Compound 100],> 7.30
17,COc1ccc2c(OC3CC4C(=O)NC5(C(=O)NS(=O)(=O)C6CC6)CC5C=CCCCOCC(NC(=O)NC(C)(C)C)C(=O)N4C3)nccc2c1 (centres unmarked) [Compound 86],> 7.30
18,COc1ccc2c(OC3CC4C(=O)NC5(C(=O)NS(=O)(=O)C6CC6)CC5C=CCOCCCC(NC(=S)NC5CC5)C(=O)N4C3)nc(-c3ccccc3)cc2c1 (centres unmarked) [Compound 104],> 7.30
19,COc1ccc2c(OC3CC4C(=O)NC5(C(=O)NS(=O)(=O)C6CC6)CC5C=CCCCCCC(NC(=O)OC(C)(C)C)C(=O)N4C3)nccc2c1F (centres unmarked) [Compound 132],> 7.30
20,CN1CCC/C=C\[C@@H]2C[C@@]2(C(=O)NS(=O)(=O)C2CC2)NC(=O)[C@@H]2C[C@@H](Oc3nccc4ccccc34)CN2C(=O)[C@@H](NC(=O)OC(C)(C)C)C1 [Compound 147],> 7.30
21,CC(C)(C)OC(=O)NC1CN(C(=O)C2CC2)CCCC=CC2CC2(C(=O)NS(=O)(=O)C2CC2)NC(=O)C2CC(Oc3nccc4ccccc34)CN2C1=O (centres unmarked) [Compound 152],> 7.30
22,O=C(NC1CCCC1)NC1CCCCCC=CC2CC2(C(=O)NS(=O)(=O)C2CC2)NC(=O)C2CC(Oc3nccc4ccccc34)CN2C1=O (centres unmarked) [Compound 127],> 7.30
23,COc1ccc2c(OC3CC4C(=O)NC5(C(=O)NS(=O)(=O)C6CC6)CC5C=CCCCOCC(NC(=O)OC5CCCC5)C(=O)N4C3)nc(-c3ccc(N(C)C)cc3)cc2c1 (centres unmarked) [Compound 110],> 7.30
